18 molecules from ChEMBL document CHEMBL1158562, “Design, synthesis and structure-activity relationships of novel biarylamine-based Met kinase inhibitors” (Bioorg Med Chem Lett, 2010) can be followed below.

Calls of active or inactive are those of the source. The rule behind the calls is not given here.

Series [1] is described as follows: Antiproliferative activity against human GTL16 cells after 72 hrs by tetrazolium-based colorimetric assay. The note with it: GTL 16, 72 h.
Series [2] concerns the target Hepatocyte growth factor receptor (Homo sapiens, UniProt P08581). Description: Inhibition of GST-tagged human recombinant c-met N terminal domain expressed in Hi5 insect cells after 60 mins by liquid scintillation counting.
For series [3], the system named is GTL 16. The experiment in a line: Antitumor activity against human GTL16 cells xenografted in anthymic mouse administered po qd for 15 days. The class given is functional, organism-based.
Series [4] concerns GTL 16. Description: Antitumor activity against human GTL16 cells xenografted in anthymic mouse assessed as complete tumor stasis at 25 mg/kg, po qd for 15 days. On the set-up: dose 25 mg/kg. The format is functional, organism-based.
The target of series [5] is Insulin receptor (Homo sapiens, UniProt P06213). The experiment in a line: Inhibition of InsR.
Series [6] can be described thus: AUC (0 to 8 hrs) in mouse at 50 mg/kg, po. The conditions noted are these: plasma. On the set-up: time < 8 hr, dose 50 mg/kg, route oral. The format is ADME, organism-based.
The target in series [7] is T1, Receptor-type tyrosine-protein kinase FLT3 (Homo sapiens, UniProt P36888).
T1 sequence (P36888 whole entry): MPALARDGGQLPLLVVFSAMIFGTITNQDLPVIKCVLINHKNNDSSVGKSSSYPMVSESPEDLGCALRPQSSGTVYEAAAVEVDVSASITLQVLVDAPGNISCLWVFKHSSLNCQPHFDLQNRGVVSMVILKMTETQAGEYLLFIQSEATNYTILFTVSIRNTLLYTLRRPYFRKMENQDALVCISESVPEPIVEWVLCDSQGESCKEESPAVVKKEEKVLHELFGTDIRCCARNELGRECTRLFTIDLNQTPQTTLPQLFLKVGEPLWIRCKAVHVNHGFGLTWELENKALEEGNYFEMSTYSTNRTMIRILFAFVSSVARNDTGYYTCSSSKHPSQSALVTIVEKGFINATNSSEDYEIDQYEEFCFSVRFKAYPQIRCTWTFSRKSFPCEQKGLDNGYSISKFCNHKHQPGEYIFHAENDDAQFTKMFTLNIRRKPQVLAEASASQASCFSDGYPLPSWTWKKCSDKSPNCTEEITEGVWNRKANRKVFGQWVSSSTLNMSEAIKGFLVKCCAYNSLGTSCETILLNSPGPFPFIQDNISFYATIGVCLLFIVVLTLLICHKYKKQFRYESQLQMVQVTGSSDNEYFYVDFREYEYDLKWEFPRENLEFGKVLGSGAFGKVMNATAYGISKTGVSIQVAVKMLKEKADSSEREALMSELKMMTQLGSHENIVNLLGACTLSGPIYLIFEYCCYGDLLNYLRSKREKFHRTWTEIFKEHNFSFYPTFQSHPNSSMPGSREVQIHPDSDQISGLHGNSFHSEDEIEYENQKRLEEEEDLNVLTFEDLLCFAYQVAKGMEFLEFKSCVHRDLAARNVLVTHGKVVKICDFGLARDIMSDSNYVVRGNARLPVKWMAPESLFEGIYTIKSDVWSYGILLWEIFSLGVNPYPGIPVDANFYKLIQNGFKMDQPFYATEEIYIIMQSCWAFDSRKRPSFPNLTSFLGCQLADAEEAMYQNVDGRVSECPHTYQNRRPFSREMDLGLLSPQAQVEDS
The experiment in a line: Inhibition of FLT3.

In series [8] the target is High affinity nerve growth factor receptor (Homo sapiens, UniProt P04629). Description: Inhibition of TrkA.
The target of series [9] is MAP kinase-activated protein kinase 2 (Homo sapiens, UniProt P49137). The experiment in a line: Inhibition of MK2.
A short description of series [10]: Inhibition of CDK2E.
The nature of series [11]: Cmax in mouse at 50 mg/kg, po for 8 hrs. The format is ADME, organism-based. Further details: dose 50 mg/kg, route oral. The conditions noted are these: in vivo.
The target of series [12] is Tyrosine-protein kinase Lck (Homo sapiens, UniProt P06239). Description: Inhibition of LcK.
In series [13] the target is Protein kinase C alpha type (Homo sapiens, UniProt P17252). The experiment in a line: Inhibition of PKCalpha.

Chain of Insulin receptor (P06213 28-758 limits assumed): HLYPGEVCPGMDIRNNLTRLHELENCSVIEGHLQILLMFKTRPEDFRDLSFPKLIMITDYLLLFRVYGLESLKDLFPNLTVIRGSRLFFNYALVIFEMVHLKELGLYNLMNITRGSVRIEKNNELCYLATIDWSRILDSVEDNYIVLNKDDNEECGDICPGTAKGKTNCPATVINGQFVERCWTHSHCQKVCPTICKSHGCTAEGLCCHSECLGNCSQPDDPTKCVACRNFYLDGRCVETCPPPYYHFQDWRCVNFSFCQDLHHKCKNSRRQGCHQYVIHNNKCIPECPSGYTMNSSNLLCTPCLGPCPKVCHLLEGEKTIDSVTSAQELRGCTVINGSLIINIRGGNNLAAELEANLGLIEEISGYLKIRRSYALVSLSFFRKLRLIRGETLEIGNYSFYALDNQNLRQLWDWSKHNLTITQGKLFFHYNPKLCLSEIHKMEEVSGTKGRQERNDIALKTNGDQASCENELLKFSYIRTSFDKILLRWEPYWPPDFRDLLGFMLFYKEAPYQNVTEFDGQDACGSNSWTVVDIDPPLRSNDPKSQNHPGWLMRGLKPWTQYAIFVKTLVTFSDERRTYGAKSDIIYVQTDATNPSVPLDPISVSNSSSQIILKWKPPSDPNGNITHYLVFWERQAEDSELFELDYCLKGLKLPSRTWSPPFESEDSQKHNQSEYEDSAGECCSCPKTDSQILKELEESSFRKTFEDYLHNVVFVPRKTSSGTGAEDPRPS
Chain of Insulin receptor (P06213 763-1382 limits assumed): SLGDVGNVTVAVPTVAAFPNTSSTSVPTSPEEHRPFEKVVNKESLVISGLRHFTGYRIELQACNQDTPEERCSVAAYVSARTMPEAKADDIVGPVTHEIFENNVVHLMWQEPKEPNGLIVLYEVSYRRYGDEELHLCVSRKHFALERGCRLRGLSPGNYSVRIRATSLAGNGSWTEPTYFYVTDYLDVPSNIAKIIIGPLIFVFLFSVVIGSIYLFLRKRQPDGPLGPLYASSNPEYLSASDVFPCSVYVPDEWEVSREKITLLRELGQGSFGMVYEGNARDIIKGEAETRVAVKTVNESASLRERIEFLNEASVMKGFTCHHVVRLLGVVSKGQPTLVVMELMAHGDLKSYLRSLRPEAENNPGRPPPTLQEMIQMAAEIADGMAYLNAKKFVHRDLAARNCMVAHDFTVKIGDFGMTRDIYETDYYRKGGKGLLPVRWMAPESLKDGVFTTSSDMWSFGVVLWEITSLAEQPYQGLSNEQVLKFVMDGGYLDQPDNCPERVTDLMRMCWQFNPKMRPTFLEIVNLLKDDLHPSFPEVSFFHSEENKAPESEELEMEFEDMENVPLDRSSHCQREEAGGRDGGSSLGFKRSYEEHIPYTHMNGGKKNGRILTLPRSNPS
Chain of MAP kinase-activated protein kinase 2 (P49137 whole entry): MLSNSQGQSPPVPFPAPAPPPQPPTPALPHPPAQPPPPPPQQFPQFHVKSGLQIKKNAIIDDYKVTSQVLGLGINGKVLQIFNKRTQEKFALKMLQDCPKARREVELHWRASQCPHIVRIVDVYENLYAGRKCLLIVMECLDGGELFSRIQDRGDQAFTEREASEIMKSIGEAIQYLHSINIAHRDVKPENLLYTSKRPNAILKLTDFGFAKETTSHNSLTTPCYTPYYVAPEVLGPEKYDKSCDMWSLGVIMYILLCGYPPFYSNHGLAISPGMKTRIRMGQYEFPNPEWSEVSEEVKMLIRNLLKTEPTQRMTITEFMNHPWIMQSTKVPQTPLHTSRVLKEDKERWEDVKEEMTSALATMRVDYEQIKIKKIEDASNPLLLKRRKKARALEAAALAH
Chain of Tyrosine-protein kinase Lck (P06239 whole entry): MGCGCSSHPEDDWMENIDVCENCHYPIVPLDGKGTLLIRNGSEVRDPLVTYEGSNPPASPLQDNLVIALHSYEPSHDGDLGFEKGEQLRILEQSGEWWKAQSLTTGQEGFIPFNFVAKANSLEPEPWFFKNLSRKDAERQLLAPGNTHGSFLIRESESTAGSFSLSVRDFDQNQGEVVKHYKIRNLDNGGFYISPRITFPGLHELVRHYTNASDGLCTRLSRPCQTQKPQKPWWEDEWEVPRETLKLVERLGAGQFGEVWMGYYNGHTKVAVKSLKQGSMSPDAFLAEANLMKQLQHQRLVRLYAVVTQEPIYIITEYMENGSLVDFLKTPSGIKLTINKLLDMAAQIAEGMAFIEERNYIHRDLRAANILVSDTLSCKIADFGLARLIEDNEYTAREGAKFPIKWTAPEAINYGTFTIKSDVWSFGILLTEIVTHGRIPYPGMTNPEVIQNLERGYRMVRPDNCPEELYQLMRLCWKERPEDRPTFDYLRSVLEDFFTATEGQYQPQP
Chain of High affinity nerve growth factor receptor (P04629 whole entry): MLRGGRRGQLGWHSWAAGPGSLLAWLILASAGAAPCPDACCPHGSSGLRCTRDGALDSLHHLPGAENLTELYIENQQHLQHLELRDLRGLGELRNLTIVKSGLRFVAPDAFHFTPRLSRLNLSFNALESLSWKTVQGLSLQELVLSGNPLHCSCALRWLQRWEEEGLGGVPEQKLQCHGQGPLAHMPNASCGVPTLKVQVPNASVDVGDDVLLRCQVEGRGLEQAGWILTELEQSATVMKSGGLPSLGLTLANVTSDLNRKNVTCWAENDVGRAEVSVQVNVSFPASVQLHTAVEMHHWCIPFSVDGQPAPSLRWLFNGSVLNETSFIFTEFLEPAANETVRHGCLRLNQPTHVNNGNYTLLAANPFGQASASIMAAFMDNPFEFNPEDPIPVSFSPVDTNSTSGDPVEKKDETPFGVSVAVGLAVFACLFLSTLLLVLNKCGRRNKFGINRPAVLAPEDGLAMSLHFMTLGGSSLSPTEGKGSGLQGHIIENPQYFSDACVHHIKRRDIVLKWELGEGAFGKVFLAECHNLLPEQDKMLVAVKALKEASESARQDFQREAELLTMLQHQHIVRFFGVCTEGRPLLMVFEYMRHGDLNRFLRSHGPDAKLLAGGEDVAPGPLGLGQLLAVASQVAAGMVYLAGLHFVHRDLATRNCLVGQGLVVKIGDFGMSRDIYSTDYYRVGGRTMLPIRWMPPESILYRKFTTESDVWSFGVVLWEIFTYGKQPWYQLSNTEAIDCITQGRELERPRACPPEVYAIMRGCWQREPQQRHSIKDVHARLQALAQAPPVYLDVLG

In series [1], `Cc1ccccc1NC(=O)c1cccnc1Nc1ccc(Oc2ccnc3[nH]ccc23)c(F)c1` came in with an IC50 of 420 nM.

As to `O=C(Nc1ccccc1Cl)c1cccnc1Nc1ccc(Oc2ccnc3[nH]ccc23)c(F)c1`, the IC50 in series [1] was determined as 1200 nM.

In series [1], `O=C(Nc1ccccc1)c1cccnc1Nc1ccc(Oc2ccnc3[nH]ccc23)c(F)c1` returned an IC50 of 460 nM.

In series [1], `O=C(Nc1ccccc1CCO)c1cccnc1Nc1ccc(Oc2ccnc3[nH]ccc23)c(F)c1` gave a half-inhibitory concentration (IC50) of 400 nM.

For the molecule `O=C(Nc1ccc(F)cc1F)c1cccnc1Nc1ccc(Oc2ccnc3[nH]ccc23)c(F)c1`, the IC50 in [2] was 7 nM; in series [5], above 50000 nM; in series [7], 120 nM; in series [8], 350 nM; in series [1], 210 nM; in series [9] it was above 50000 nM. The IC50 in series [10], in series [12] and in series [13] was above 50000 nM in each case. In [3], the Activity entry is “Dose-dependent effect”. Moreover, the outcome in series [4] was Active. This molecule also registered an AUC(0-t) at 8 h in [6] of 42 µM·h. Besides, the Cmax in [11] amounted to 9.3 µM.

Consider `Nc1cc(Oc2ccc(Nc3ncc(Br)cc3C(=O)Nc3ccc(F)cc3F)cc2F)ccn1`, for which it took 590 nM to reach half-maximal inhibition in [1] (IC50).

Regarding `O=C(Nc1ccc(F)cc1F)c1cnccc1Nc1ccc(Oc2ccnc3[nH]ccc23)c(F)c1`, the IC50 in series [1] was above 10000 nM.

Molecule `CN(C(=O)c1cccnc1Nc1ccc(Oc2ccnc3[nH]ccc23)c(F)c1)c1ccc(F)cc1` showed an IC50 in [1] of 5580 nM.

As for `O=C(Nc1ccc(F)cn1)c1cccnc1Nc1ccc(Oc2ccnc3[nH]ccc23)c(F)c1`, the 50% inhibitory concentration (IC50) in series [1] was determined as 270 nM.

`O=C(Nc1ccc(F)cc1F)c1nccnc1Nc1ccc(Oc2ccnc3[nH]ccc23)c(F)c1` had an IC50 in series [1] of 7150 nM.

With `O=C(Nc1ccc(F)cc1F)c1cc(Br)cnc1Nc1ccc(Oc2ccnc3[nH]ccc23)c(F)c1`, it took 640 nM to reach half-maximal inhibition in series [1] (IC50).

With `Nc1cc(Oc2ccc(Nc3nccnc3C(=O)Nc3ccc(F)cc3F)cc2F)ccn1`, the IC50 in series [1] came to 2730 nM.

In the case of `Cc1ccc(C(=O)Nc2ccc(F)cc2F)c(Nc2ccc(Oc3ccnc4[nH]ccc34)c(F)c2)n1`, the IC50 in [1] amounted to 2400 nM.

For `Nc1cc(Oc2ccc(Nc3ncccc3C(=O)Nc3ccc(Cl)cc3)cc2F)ccn1`, the IC50 in series [1] was 1160 nM.

Take `CSc1ncc(C(=O)Nc2ccc(F)cc2F)c(Nc2ccc(Oc3ccnc(N)c3)c(F)c2)n1`: the IC50 in series [1] amounted to 440 nM.

On to `Nc1cc(Oc2ccc(Nc3ncncc3C(=O)Nc3ccc(F)cc3F)cc2F)ccn1`, for which, in [1], the IC50 was 1930 nM.

In series [1], `CN(C)c1ncc(C(=O)Nc2ccc(F)cc2F)c(Nc2ccc(Oc3ccnc(N)c3)c(F)c2)n1` came in with an IC50 above 10000 nM.

For `Nc1cc(Oc2ccc(Nc3ncccc3C(=O)Nc3ccc(F)cc3F)cc2F)ccn1`, the IC50 in series [1] is 900 nM.

In general, IC50 refers to the concentration that gives 50% inhibition. The term AUC(0-t) denotes exposure summed from dosing to a finite time, without extrapolation to infinity. A low value points to low exposure. Usually Cmax stands for the peak of the concentration-time curve.
